Data as given in patent US10385399B2, “Method for determining clinically relevant hypoxia in cancer” (AARHUS UNIVERSITET, priority 2011, dated 2019).

Experiments:
[1] = tested on: head and neck cancer patients; experiment: DAHANCA 5 trial: Nimorazole or placebo in conjunction with conventional radiotherapy, loco-regional tumour control; assay type: in vivo, human
Description: In order to test the predictive potential for hypoxic modification of radiotherapy obtained by nitroimidazoles, the 15-gene classifier was applied on all 323 HNSCC biopsies from patients enrolled in the DAHANCA 5 trial. […] Overall, the hypoxia classifier categorized 114 tumours (35%) as “more” hypoxic and 209 tumours (65%) as “less” hypoxic. […] No significant difference in loco-regional tumour control could be detected between the two groups if treatment intervention was ignored (p=0.07), (FIG. 3b). […] This hypothesis could not be supported by the 15-gene hypoxia classifier that identified similar relative distribution of “more” hypoxic tumours among the HPV/p16-positive tumours as among the HPV/p16-negative tumours (Table 5). Thus, it appears that the cause for different prognosis must be searched elsewhere and might be related to a reduced number of radio-resistant cancer stem cells in the HPV/p16-positive tumors.
Hypoxia responsive and pH independent genes were identified by microarray analysis (Affymetrix Human Genome U133 Plus 2.0 Array) of relevant cell lines of squamous cell carcinoma, which were cultured in vitro where microenvironment conditions had been manipulated (0.1% vs. 5% pO2 and 7.4 vs. 6.3 pH). In vivo validation was performed by converting the cell lines into a xenograft model and comparing the gene expression in hypoxic and non-hypoxic tumour areas (Wilcoxon signed rank analysis) guided by a well established hypoxic tracer and [^18F] FAZA. A hypoxia gene expression classifier was build by separating 58 previously hypoxia evaluated formalin fixated paraffin embedded (FFPE) head and neck tumour biopsies into “more” and “less” hypoxic tumours. […] Independent tumours were then to be classified to the group (“more” or “less” hypoxic), in which their gene expression expressed the greatest similarities. The classifier was tested in an independent set of 323 FFPE biopsies of head and neck cancer, were patients had been randomized and treated with either placebo or the hypoxic modifier Nimorazole in conjunction with conventional radiotherapy^4. We verified whether the 15-gene hypoxia classifier could identify a subset of tumours having benefit from Nimorazole in conjunction with radiotherapy, by comparing the clinical outcome and the response to hypoxic modification in the two classified groups with log-rank test, cox-regression analysis and test for interaction.
In vitro experiments were based on human squamous cell carcinoma cell lines UTSCC5, UTSCC14, UTSCC15 (oral carcinoma), FADUDD (hypopharyngeal carcinoma) and SiHa (uterine cervix carcinoma). Xenograft tumours for in vivo validation were generated with cell lines of UTSCC33, FADUDD or SiHa. The hypoxia classifier was generated from 58 previously hypoxia evaluated head and neck cancer biopsies archived as formalin fixated and paraffin embedded samples (FFPE). To test the prognostic and predictive impact of the developed classifier, we used 323 archival supraglottic larynx or pharynx tumour samples (FFPE) from the randomized, double blinded DAHANCA 5 trial.
H, N and M areas of the xenograft tumours were compared with the Wilcoxon's signed rank analysis. End point used in the evaluation of the classifier in the independent data set, was actuarial loco-regional tumour control probability at 5 years, defined as complete and persistent disappearance of the disease in the primary tumour (T site) and regional lymph nodes (N site) after radiotherapy. Failure was recorded in the event of recurrent tumour or if the tumour never completely disappeared. Follow-up was completed as part of the original study. […] Patient and tumour characteristics of the “more” and “less” hypoxic” groups divided by the hypoxia classifier were compared using the Chi Squared test for categorical variables. Loco-regional tumour control in the two groups was illustrated with a Kaplan Meier plot and compared using the log-rank test. […]

[2] = tested on: head and neck cancer patients; settings: cited from earlier work

In the case of `O=[N+]([O-])c1cncn1CCN1CCOCC1` [Nimorazole, 4-[2-(5-nitro-1H-imidazol-1-yl)ethyl]morpholine], the “HR (95% CI) loco-regional tumour control, Nimorazole vs placebo” value (“HR (95% CI) loco-regional tumour control” for short) ([1]; Cox multivariate analysis, "Less" hypoxic group by 15-gene hypoxia classifier) is reported as 0.97 (0.65-1.44), the “HR (95% CI) loco-regional tumour control” value ([1]; Cox multivariate analysis, "More" hypoxic group by 15-gene hypoxia classifier) is reported as 0.44 (0.27-0.73) and the “HR (95% CI) loco-regional tumour control” value ([1]; Cox multivariate analysis, all patients (n = 323)) is reported as 0.70 (0.51-0.96). The “HR (95% CI) loco-regional tumour control” value ([1]; Univariate analysis, "Less" hypoxic group by 15-gene hypoxia classifier (n = 209)) was 0.85 (0.50-1.38), the “HR (95% CI) loco-regional tumour control” value ([1]; Univariate analysis, "More" hypoxic group by 15-gene hypoxia classifier (n = 114)) was 0.46 (0.29-0.75) and the “HR (95% CI) loco-regional tumour control” value ([1]; Univariate analysis, all patients (n = 323), with conventional radiotherapy) was 0.72 (0.53-0.97). For the same molecule, the “outcome in terms of loco-regional tumour control after radiotherapy vs placebo” value ([1]; all 323 HNSCC patients, irrespective of hypoxia classification, p=0.03) was “significantly improved outcome”, the “loco-regional tumour control after 5 years” value ([1]; group classified as "less" hypoxic, Nimorazole with radiotherapy (vs. 44%, p=0.42)) was 50% and the “loco-regional tumour control after 5 years” value ([1]; group classified as "more" hypoxic, Nimorazole with radiotherapy (placebo 18%, p=0.002)) was 49%. For the same molecule, the “outcome compared to placebo in conjunction with radiotherapy” value ([2]; DAHANCA 5 trial as described in the background, head and neck cancer patients) was “improved outcome” and the “effect on loco-regional tumour control of HPV/p16-positive tumors” value ([2]; HPV/p16-positive tumours, previously shown in the DAHANCA 5 study) was “without any beneficial effect”.
